Target: T1, human mGluR7 (Homo sapiens, UniProt Q14831)
T1 construct: expressed in transfected cells
Test: mGluR7 assay: CRE-directed luciferase reporter gene assay, reduction of forskolin stimulated cAMP production
Type: cell-based
Conditions: stable CHO cell line expressing the CRE-luc reporter and human mGluR7 genes; decrease of forskolin stimulated luminescence; 10-point concentration-response, duplicate wells
Description: The ability of the test compounds to activate mGluR7 was determined by their ability to reduce forskolin stimulated cAMP production. Compounds were assessed in a CRE-directed luciferase reporter gene assay, using a stable CHO cell line expressing the CRE-luc reporter and human mGluR7 genes. In this cell line, production of cAMP stimulated the transcription of the luciferase gene and luciferase activity was then measured in a luminescent enzyme assay (Steady Glo assay; Promega E2550). Activation of mGluR7 decreased the forskolin stimulated luminescence signal.
The day prior to the assay, compounds were serially diluted in DMSO (100× final assay concentration (FAC)), in 384-well plates which were then stored in the dark at room temperature (RT) until use. Cells were seeded at 12.5 k/well in white, clear bottom 384-well plates (Corning 3707) and left for one hour at RT followed by an overnight incubation (37° C.). The following day, the DMSO compound plate was diluted 1:20 (5× FAC) in Opti-MEM I (Life Technologies 11058021). The growth media was removed from the cell plate and replaced with 15 μl Opti-MEM I, followed by a 5 μl addition from the 5× compound plate and a fifteen minute incubation (37° C.). Forskolin (Sigma F3917) was then added to the wells (5 μl of 2.5 μM) and the plate was incubated for five hours (37° C.). During this incubation, the Steady Glo Substrate reagent was warmed to 37° C. Aliquots (11 ml; stored at −20° C.) of this reagent were prepared by dissolving the contents of 1 vial of lyophilised substrate in 100 ml Steady-Glo buffer. A 25 μl addition of the substrate was made to all wells and the plate was incubated for thirty minutes at RT, on a plate shaker (300 rpm; in the dark). Luminescence was then measured using the EnVision Multilabel Reader (Perkin Elmer).
Compound activity was examined using a 10-point, half log concentration-response range and each concentration was tested in duplicate wells. Luminescence values were normalised to ‘maximum’ (forskolin alone) and ‘minimum’ (forskolin in the presence of tool mGluR7 agonist) controls.

T1 sequence (Q14831 35-915): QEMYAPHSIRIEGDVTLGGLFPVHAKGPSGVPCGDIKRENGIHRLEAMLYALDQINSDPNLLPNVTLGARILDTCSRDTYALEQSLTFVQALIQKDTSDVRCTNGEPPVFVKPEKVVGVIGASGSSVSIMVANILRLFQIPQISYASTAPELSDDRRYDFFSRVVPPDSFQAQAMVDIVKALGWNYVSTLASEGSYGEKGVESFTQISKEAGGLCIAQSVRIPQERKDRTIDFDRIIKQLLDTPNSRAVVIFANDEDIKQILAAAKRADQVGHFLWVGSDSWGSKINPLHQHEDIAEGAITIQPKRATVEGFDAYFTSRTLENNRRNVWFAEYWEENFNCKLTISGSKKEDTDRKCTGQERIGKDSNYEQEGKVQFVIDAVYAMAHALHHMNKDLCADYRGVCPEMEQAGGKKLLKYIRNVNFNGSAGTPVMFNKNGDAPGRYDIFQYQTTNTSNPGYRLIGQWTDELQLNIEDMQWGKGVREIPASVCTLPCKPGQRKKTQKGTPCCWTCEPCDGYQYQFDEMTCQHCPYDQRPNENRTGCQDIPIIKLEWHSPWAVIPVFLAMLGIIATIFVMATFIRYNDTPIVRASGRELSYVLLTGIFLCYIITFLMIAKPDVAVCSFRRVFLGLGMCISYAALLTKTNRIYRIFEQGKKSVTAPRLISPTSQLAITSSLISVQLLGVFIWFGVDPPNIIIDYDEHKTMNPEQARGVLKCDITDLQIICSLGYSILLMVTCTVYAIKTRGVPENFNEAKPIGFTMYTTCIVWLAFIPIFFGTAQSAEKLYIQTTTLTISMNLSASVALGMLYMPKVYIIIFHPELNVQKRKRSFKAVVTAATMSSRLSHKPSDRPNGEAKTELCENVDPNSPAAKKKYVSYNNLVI

EC50 [nM]	Structure (SMILES)
3	CCO[C@@H]1c2ccccc2C[C@H]1NC(=O)[C@@H](NCc1csc(C)n1)c1ccc(F)cc1 (mixture of isomers) [Example 60, (2S)—N-(trans)-(1-ethoxy-2,3-dihydro-1H-inden-2-yl)-2-(4-fluorophenyl)-2-{[(2-methyl-1,3-thiazol-4-yl)methyl]amino}acetamide]
83	CC(C)(C)OC(=O)N[C@H]1c2ccccc2C[C@@H]1NC(=O)C(c1ccc(F)cc1F)n1cccn1 (mixture of isomers) [Example 81, tert-butyl N-[(1S,2S)-2-[2-(2,4-difluorophenyl)-2-(1H-pyrazol-1-yl)acetamido]-2,3-dihydro-1H-inden-1-yl]carbamate]
772	Cc1nccn1C(C(=O)N[C@H]1Cc2ccccc2[C@@H]1NC(=O)OC(C)(C)C)c1ccc(F)cc1F (mixture of isomers) [Example 82, tert-butyl N-[(1S,2S)-2-[2-(2,4-difluorophenyl)-2-(2-methyl-1H-imidazol-1-yl)acetamido]-2,3-dihydro-1H-inden-1-yl]carbamate]
23	CC(C)(C)OC(=O)N[C@H]1c2ccccc2C[C@@H]1NC(=O)C(c1ccc(F)cc1F)N1CC(F)C1 (mixture of isomers) [Example 93, tert-butyl N-[(1S,2S)-2-[2-(2,4-difluorophenyl)-2-(3-fluoroazetidin-1-yl)acetamido]-2,3-dihydro-1H-inden-1-yl]carbamate]
107	C[C@H](C(=O)NC1Cc2ccccc2C1O)c1ccccc1 (mixture of isomers) [Example 2, (2S)—N-((trans)-1-hydroxy-2,3-dihydro-1H-inden-2-yl)-2-phenylpropanamide]
29	COC1c2ccccc2CC1NC(=O)[C@@H](C)c1ccccc1 (mixture of isomers) [Example 7, (2S)—N-((trans)-1-methoxy-2,3-dihydro-1H-inden-2-yl)-2-phenylpropanamide]
24	COC1c2ccccc2CC1NC(=O)[C@@H](C)c1ccc(F)cc1F (mixture of isomers) [Example 25, (2S)-2-(2,4-difluorophenyl)-N-((trans)-1-methoxy-2,3-dihydro-1H-inden-2-yl)propanamide]
28	CCOC1c2ccccc2CC1NC(=O)[C@@H](C)c1ccc(F)cc1F (mixture of isomers) [Example 28, (2S)-2-(2,4-difluorophenyl)-N-((trans)-1-ethoxy-2,3-dihydro-1H-inden-2-yl)propanamide]
36	COC1c2ccccc2CC1NC(=O)[C@@H](C)c1ccc(F)cc1 (mixture of isomers) [Example 36, (2S)-2-(4-fluorophenyl)-N-((trans)-1-methoxy-2,3-dihydro-1H-inden-2-yl)propanamide]
9	CC[C@H](C(=O)NC1Cc2ccccc2C1OC)c1ccc(F)cc1 (mixture of isomers) [Example 44, (2S)-2-(4-fluorophenyl)-N-((trans)-1-methoxy-2,3-dihydro-1H-inden-2-yl)butanamide]
66	COC1c2ccccc2CC1NC(=O)[C@@H](N)c1ccc(F)cc1 (mixture of isomers) [Example 54, (2S)-2-amino-2-(4-fluorophenyl)-N-(trans)-(1-methoxy-2,3-dihydro-1H-inden-2-yl)acetamide]
4	CS(=O)(=O)[C@@H]1c2ccccc2C[C@H]1NC(=O)C(OCC1CC1)c1ccccc1 (relative stereo) [Example 135, 2-(cyclopropylmethoxy)-N-(trans)-(1-methanesulfonyl-2,3-dihydro-1H-inden-2-yl)-2-phenylacetamide]
349	C[C@H](C(=O)NC1Cc2ccccc2C1O)c1ccccc1 (single isomer, unassigned) [Example 3]
121	C[C@H](C(=O)NC1Cc2ccccc2C1O)c1ccccc1 (single isomer, unassigned) [Example 4]
654	C[C@H](C(=O)NC1Cc2ccccc2C1O)c1ccccc1 (single isomer, unassigned) [Example 5]

Structure (SMILES)	EC50 [nM]
C[C@H](C(=O)NC1Cc2ccccc2C1N1CCCC1)c1ccccc1 (mixture of isomers) [Example 78, (2S)-2-phenyl-N-(trans)-[1-(pyrrolidin-1-yl)-2,3-dihydro-1H-inden-2-yl]propanamide]	322
